Test results from patent US20220373555A1, “Methods to detect or quantify a gadolinium-based contrast agent in a sample using a luminescent agent able to chelate a Gd3+ cation” (THE REGENTS OF THE UNIVERSITY OF CALIFORNIA, priority 2021, published 2022).

What was measured:
[1] = Quantification of GBCAs in mouse urine by ICP-OES; assay type: in vivo, Swiss Webster mice; details: urine collected 2 h after i.v. injection, 0.3 mmol/kg
Procedure: (§1) Finally, the luminescence assay by quantifying GBCAs in mouse urine samples is validated. The three GBCAs are intravenously injected (four mice per group), and urine is collected 2 h after injection, as mice excrete the contrast agents more quickly than humans do.^41 Due to the different composition between mouse and human urine,^42 calibration curves (FIG. 7) are performed by spiking GBCA standards into urine from control mice rather than into synthetic human urine. Table 4 reports the assay response to the mouse urine samples, and Table 3 compares the GBCA concentrations quantified by the assay versus inductively coupled plasma optical emission spectrometry (ICP-OES), which is one of the gold standard techniques for gadolinium quantification.^43 The assay provided values that are very similar to those of ICP-OES, with only slightly higher standard deviations.
The protocol used in the animal studies is reviewed and approved by the Institutional Animal Care and Use Committee of Lawrence Berkeley National Laboratory, and is performed in AAALAC-accredited facilities according to prescribed guidelines and regulations. The animals are young adult (78 days old) female (33.0±1.4 g) Swiss Webster mice (Simonsen Laboratories, Gilroy, Calif., USA). Mice are kept under a 12 h light cycle with controlled temperature (21-24° C.) and relative humidity (30-70%), and are given water and food ad libitum. Each group is housed together in a plastic stock cage lined with a 0.5 cm layer of highly absorbent low-ash pelleted cellulose bedding (ALPHA-dri). […]
To quantify the concentrations of the GBCA in mouse urine by ICP-OES, 50 μL of commercial stock solutions are digested in 100 μL of nitric acid (70%) and 100 μL of hydrogen chloride (6 N) for 3 h at 60 ° C. and re-dispersed in 4.75 mL of Milli-Q water. The final concentration of gadolinium in solution is quantified on a Perkin Elmer 5300 DV optical emission ICP with auto sampler at the Inductively Coupled Plasma Spectroscopy Facility of the University of California, Berkeley. […]

[2] = Quantification of GBCAs in mouse urine by luminescence assay; assay type: in vivo, Swiss Webster mice; details: for [GBCA] in assay solution: mouse urine 2 h after injection, diluted in MES buffer; for [GBCA] in original sample: mouse urine collected 2 h after injection; for GBCA concentration in mouse urine, Luminescence assay: urine collected 2 h after i.v. injection, 0.3 mmol/kg
Procedure: as §1
The protocol used in the animal studies is reviewed and approved by the Institutional Animal Care and Use Committee of Lawrence Berkeley National Laboratory, and is performed in AAALAC-accredited facilities according to prescribed guidelines and regulations. The animals are young adult (78 days old) female (33.0±1.4 g) Swiss Webster mice (Simonsen Laboratories, Gilroy, Calif., USA). Mice are kept under a 12 h light cycle with controlled temperature (21-24° C.) and relative humidity (30-70%), and are given water and food ad libitum. Each group is housed together in a plastic stock cage lined with a 0.5 cm layer of highly absorbent low-ash pelleted cellulose bedding (ALPHA-dri). Groups of four mice are injected intravenously into a warmed lateral tail vein with a single dose of GBCA (0.3 mmol/kg mouse) or bacteriostatic […] sodium chloride solution (control group), and urine is collected after 2 h through bladder massage method. Finally, euthanasia is performed under isotiurane anesthesia.
Because the GBCA concentration in mouse urine is very high at early excretion times, the samples are diluted in buffer as described: 1 μL mouse urine samples are mixed with […] MES solutions (final concentration 50 mM, pH 6.0). 4 μL 3,4,3-LI(1,2-HOPO) (1 mM) are added to each solution, mixed for 10 s, and left to incubate at room temperature, without stirring for 10 min. 4 μL EuCl3 (1 mM) are added, mixed for 10 s and left undisturbed for 10 min before recording emission spectra from 500 to 700 nm under 315 nm excitation with a SpectraMax iD3 Multi-Mode Microplate Reader. For calibration curve preparation, GBCA standard solutions are spiked into urine of control mice. The resulting solutions are quantified as previously described in this paragraph.

[3] = Detection of GBCA in synthetic human urine by luminescence quenching assay; details: GBCA increased up to 150 μM; 50% synthetic human urine, 50 mM MES pH 6.0
Procedure: In this assay, 3,4,3-LI(1,2-HOPO) is added to the urine sample and, in the absence of GBCAs, 1,2-HOPO groups remain available to complex other metal species. Eu^3+ is then added, and its emission is sensitized (FIG. 3). In the presence of GBCAs, however, 1,2-HOPO units acquire the Gd^3+ from the contrast agent because of their higher affinity for the metal compared to clinical ligands,^23 preventing the coordination of subsequently added Eu^3+. Thus, a drastic emission quenching is induced in presence of GBCAs.
Surine™ samples containing different amounts of GBCA are diluted down to 50% with MES solution (final concentration 50 mM, pH 6.0). 2 μL 3,4,3-LI(1,2-HOPO) (1 mM) are added to each solution, mixed for 10 s, and left to incubate at room temperature, without stirring for 10 min. 2 μL EuCl3 (1 mM) are added, mixed for 10 s and left undisturbed for 10 min before recording emission spectra from 500 to 700 nm under 315 nm excitation with a SpectraMax iD3 Multi-Mode Microplate Reader.
The limit of detection is calculated as: […]
Where ILOD is the assay response intensity at the limit of detection, Iblank is the response intensity of the blank, and σblank is the standard deviation for the blank signal.

[4] = Effect of urine on Eu3+-3,4,3-LI(1,2-HOPO) emission / stability in urine; assay type: physicochemical
Procedure: Urine is a complex matrix comprised of salts and metabolism by-products, which can potentially affect assay response. […] Although the average pH of human urine is 6.0, there is a strong variation among individuals.^37 Therefore, the following in vitro experiments are performed with urine at 50% dilution with […] buffer (50 mM, pH 6.0) to fix the acidity of the solution, preventing potential variations in the assay response due to sample pH, and 10 min incubation times, which had been optimized in preliminary experiments.
2 μL 3,4,3-LI(1,2-HOPO) (1 mM) and EuCl3 (1 mM) are added to a water solution, mixed for 10 s, and left to incubate at room temperature, without stirring, for 10 min. The absorption spectrum (from 250 to 425 nm) and luminescence spectrum (from 500 to 750 nm under 315 nm excitation) are recorded with a SpectraMax iD3 Multi-Mode Microplate Reader (Molecular Devices, Sunnyvale, Calif.).

[5] = Selectivity of the Eu3+-3,4,3-LI(1,2-HOPO) probe: optical response to Gd3+ and interfering cations; assay type: physicochemical; details: 50 μM cation; emission at 620 nm, 315 nm excitation
Procedure: The optical response (FIG. 2b) of the Eu^3+-3,4,3-LI(1,2-HOPO) complex to Gd^3+ ions and several potential interfering cations is examined.
2 μL 3,4,3-LI(1,2-HOPO) (1 mM) are added to various solutions containing 50 μM of Gd^3+, Na^+, K^+, Ca^2+ or Mg^2+, mixed for 10 s, and left to incubate at room temperature, without stirring for 10 min. 2 μL EuCl3 (1 mM) are added to the solutions, mixed for 10 s, and left undisturbed for 10 min before recording emission spectra from 500 to 700 nm, under 315 nm excitation with a SpectraMax iD3 Multi-Mode Microplate Reader.

GBCA concentration in mouse urine, ICP-OES [1] [M] | [GBCA] in assay solution [2] [µM] | [GBCA] in original sample [2] [M] | GBCA concentration in mouse urine, Luminescence assay [2] [M] | Molecule | other results
0.024 ± 0.000 | 101 ± 3 | 0.020 ± 0.001 | 0.020 ± 0.001 | CNC(=O)CN(CCN(CCN(CC(=O)[O-])CC(=O)NC)CC(=O)[O-])CC(=O)[O-].[Gd+3] [Omnsican, gadodiamide] | 
0.018 ± 0.000 | 101 ± 13 | 0.020 ± 0.005 | 0.020 ± 0.005 | CNC[C@H](O)[C@@H](O)[C@H](O)[C@H](O)CO.CNC[C@H](O)[C@@H](O)[C@H](O)[C@H](O)CO.O=C([O-])CN(CCN(CC(=O)[O-])CC(=O)O)CCN(CC(=O)[O-])CC(=O)O.[Gd+3] [Magnevist, gadopentetate dimeglumine] | decrease of luminescence of the assay solution [3]: 75±1%
 |  |  |  | Eu^3+-3,4,3-LI(1,2-HOPO) | effect of urine on emission ([4]; 20 μM, 0 to 100% artificial human urine (Surine), 315 nm excitation): not affected by urine
 |  |  |  | O.O.O.O.O.O.[Cl-].[Cl-].[Cl-].[Gd+3] [Gd^3+, gadolinium (III) chloride hexahydrate] | quenching of 20 μM Eu^3+-3,4,3-LI(1,2-HOPO) emission [5]: 71±1%
0.015 ± 0.000 | 86 ± 9 | 0.017 ± 0.004 | 0.017 ± 0.004 | CNC[C@H](O)[C@@H](O)[C@H](O)[C@H](O)CO.CNC[C@H](O)[C@@H](O)[C@H](O)[C@H](O)CO.O=C([O-])CN(CCN(CC(=O)[O-])CC(=O)O)CCN(CC(=O)O)C(COCc1ccccc1)C(=O)[O-].[Gd+3] (stereo not shown) [Multihance, gadobenate dimeglumine] | 
 |  |  |  | O=C(NCCCN(CCCCN(CCCNC(=O)c1cccc(=O)n1O)C(=O)c1cccc(=O)n1O)C(=O)c1cccc(=O)n1O)c1cccc(=O)n1O [3,4,3-LI(1,2-HOPO)] | stability in urine ([4]; urine): stable in urine
